The record followed here is patent publication US12258338B2, “Modulators of the integrated stress response pathway” (EVOTEC INTERNATIONAL GMBH, priority 2019, dated 2025).

≈ marks a conversion by molar mass, not a printed value. Like-named read-outs stand apart in the source and are kept apart here.

The subject of one data set is ATF4. The data set is described as follows: HEK-ATF4 High Content Imaging assay (prevention of Tunicamycin induced ISR; ATF4 signal ratio between nucleus and cytoplasm). It counts as cell-based. The note with it: Homo sapiens; Wild-type HEK293 cells, Tunicamycin induced ISR, 6 h; read-out: IIEK-ATF4 Activity. As for the experimental part:
HEK-ATF4 High Content Imaging Assay
Example compounds were tested in the HEK-ATF4 High Content Imaging assay to assess their pharmacological potency to prevent Tunicamycin induced ISR. Wild-type HEK293 cells were plated in 384-well imaging assay plates at a density of 12,000 cells per well in growth medium (containing DMEM/F12, 10% FBS, 2 mM L-Glutamine, 100 U/mL Penicillin-100 μg/mL Streptomycin) and incubated at 37° C., 5% CO2. 24 h later, the medium was changed to 50 μL assay medium per well (DMEM/F12, 0.3% FBS, 2 mM L-Glutamine, 100 U/mL Penicillin-100 μg/mL Streptomycin). Example compounds were serially diluted in DMSO, spotted into intermediate plates and prediluted with assay medium containing 3.3 μM Tunicamycin to give an 11-fold excess of final assay concentration. In addition to the example compound testing area, the plates also contained multiples of control wells for assay normalization purposes, wells containing Tunicamycin but no example compounds (High control), as well as wells containing neither example compound nor Tunicamycin (Low control). The assay was started by transferring 5 μL from the intermediate plate into the assay plates, followed by incubation for 6 h at 37° C., 5% CO2. Subsequently, cells were fixed (4% PFA in PBS, 20 min at r.t.) and submitted to indirect ATF4 immunofluorescence staining (primary antibody rabbit anti ATF4, clone D4B8, Cell Signaling Technologies; secondary antibody Alexa Fluor 488 goat anti-rabbit IgG (H+L), Thermofisher Scientific). Nuclei were stained using Hoechst dye (Thermofisher Scientific), and plates were imaged on an Opera Phenix High Content imaging platform equipped with 405 nm and 488 nm excitation. Finally, images were analyzed using script based algorithms. The main readout HEK-ATF4 monitored the ATF4 signal ratio between nucleus and cytoplasm. Tunicamycin induced an increase in the overall ATF4 ratio signal, which was prevented by ISR modulating example compounds. In addition, HEK-CellCount readout was derived from counting the number of stained nuclei corresponding to healthy cells. This readout served as an internal toxicity control.

The target of data set [1] is T1, human ERG potassium channel (hERG) (Homo sapiens, UniProt Q12809).
T1 construct: expressed in transfected cells; host or cells: HEK293, stably transfected, tetracycline-inducible promoter
T1 sequence (Q12809 whole entry): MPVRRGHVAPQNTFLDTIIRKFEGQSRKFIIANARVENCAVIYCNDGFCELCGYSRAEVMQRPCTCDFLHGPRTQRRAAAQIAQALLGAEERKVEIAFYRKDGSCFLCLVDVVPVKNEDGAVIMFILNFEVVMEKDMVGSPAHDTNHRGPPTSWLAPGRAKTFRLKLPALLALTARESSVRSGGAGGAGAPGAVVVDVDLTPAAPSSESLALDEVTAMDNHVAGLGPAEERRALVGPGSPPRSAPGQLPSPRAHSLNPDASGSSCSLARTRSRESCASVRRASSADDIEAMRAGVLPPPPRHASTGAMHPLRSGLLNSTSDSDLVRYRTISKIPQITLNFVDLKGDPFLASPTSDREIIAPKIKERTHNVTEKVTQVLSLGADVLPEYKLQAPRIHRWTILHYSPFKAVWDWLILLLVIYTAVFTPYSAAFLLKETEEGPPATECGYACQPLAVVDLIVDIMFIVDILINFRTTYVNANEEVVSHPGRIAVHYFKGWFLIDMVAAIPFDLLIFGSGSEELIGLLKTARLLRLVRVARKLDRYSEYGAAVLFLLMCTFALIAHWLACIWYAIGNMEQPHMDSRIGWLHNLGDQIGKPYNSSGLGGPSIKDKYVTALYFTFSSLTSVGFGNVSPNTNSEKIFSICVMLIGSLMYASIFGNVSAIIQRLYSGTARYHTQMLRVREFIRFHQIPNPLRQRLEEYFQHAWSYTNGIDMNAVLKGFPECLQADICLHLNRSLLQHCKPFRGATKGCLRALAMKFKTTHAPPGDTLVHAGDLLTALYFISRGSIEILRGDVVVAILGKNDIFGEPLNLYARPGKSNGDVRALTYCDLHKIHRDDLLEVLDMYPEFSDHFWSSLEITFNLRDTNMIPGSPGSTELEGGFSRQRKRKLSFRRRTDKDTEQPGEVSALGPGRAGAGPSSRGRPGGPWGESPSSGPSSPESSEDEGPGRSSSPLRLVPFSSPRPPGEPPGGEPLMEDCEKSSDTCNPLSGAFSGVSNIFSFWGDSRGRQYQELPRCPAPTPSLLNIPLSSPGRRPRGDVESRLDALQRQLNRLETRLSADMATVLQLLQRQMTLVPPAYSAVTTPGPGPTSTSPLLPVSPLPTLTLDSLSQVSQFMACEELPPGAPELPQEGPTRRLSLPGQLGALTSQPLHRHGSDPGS
In words: hERG channel tail current recording using in vitro Rapid ICE (automated patch-clamp, QPatch HTX). It counts as cell-based. To be noted: Table 26. As to the method:
Protocol—Measure of the Effect on hERG Channel by Tail Current Recording Using In Vitro Rapid ICE
The potency of the example compounds in inhibiting human ERG potassium channel (hERG) tail current was assessed in a recombinant HEK293 cell line stably transfected with hERG cDNA under an inducible promoter, using Rapid ICE (rapid ion channel electrophysiology) assay. Rapid ICE is an automated patch-clamp assay utilizing the QPatch HTX system (Sophion Bioscience A/S). Briefly, inducible HEK hERG cells were cultivated in minimum essential medium supplemented with 10% FBS, 1% non-essential amino acids, 1% sodium pyruvate, 2 mM 1-glutamine, 15 μg/mL blasticidin, and 100 μg/mL hygromycin. hERG channel expression induction was obtained by adding 10 μg/mL tetracycline for 24, 48, or 72 h before recordings.
On the day of the experiment, cells were detached with TrypLE and prepared to be loaded on the instrument. Cells were resuspended in 7 mL of Serum-Free Media containing 25 mM Hepes and soybean trypsin inhibitor and immediately placed in the cell storage tank of the machine. The composition of the extracellular buffer was (mM): NaCl 137, KCl 4, CaCl2 1.8, MgCl2 1.0, d-glucose 10, N-2-hydroxyethylpiperazine-N′-2-ethanesulfonic acid (HEPES) 10, pH 7.4 with 1 M NaOH. The composition of the intracellular solution was (mM): KCl 130, MgCl2 1.0, ethylene glycol-bis(β-aminoethyl ether)-N,N,N′,N′-tetraacetic acid (EGTA) 5, MgATP 5, HEPES 10, pH 7.2 with 1 M KOH. The voltage protocol included the following steps: step from −80 to −50 mV for 200 ms, +20 mV for 4.8 s, step to −50 mV for 5 s, then step to the holding potential of −80 mV. Compounds were dissolved in DMSO and diluted in extracellular buffer to achieve final test concentrations (0.3, 3, and 30 μM) in 0.3% DMSO. The voltage protocol was run and recorded continuously during the experiment. The vehicle, corresponding to 0.3% DMSO in extracellular buffer was then applied for 3 min, followed by the test substance in triplicate. The standard combined exposure time was 5 min. The average of tail current amplitude values recorded from four sequential voltage pulses was used to calculate for each cell the effect of the test substance by calculating the residual current (% control) compared with vehicle pretreatment. Data were reported as % inhibition for each concentration tested, and IC50 values were estimated using QPatch software. At least two cells were tested, and even more if results diverged.
(In general: hERG is a cardiac potassium channel; its block is linked to QT prolongation.)

Data set [2] can be described thus: Thermodynamic (Equilibrium) solubility in selected buffer. It counts as physicochemical. The note with it: aqueous buffer, thermodynamic from solid, Table 25. As to the method: Protocol—Thermodynamic (Equilibrium) Solubility in Selected Buffer
Example compounds were tested in the Thermodynamic (Equilibrium) solubility in selected buffer assay. The test compound, in powder form, was weighted into a 4 mL glass vial and a calculated volume of selected medium was added to reach the target concentration of the solubility test (1 mg/mL). The solution was then stirred overnight at r.t. protected from the light. The solution was filtered through a 0.45 μm PTFE membrane at ambient temperature. An aliquot of the resulting filtrate was quantified using UPLC-UV method described below against a reference solution of the test compound, 0.8 mg/mL in DMSO. Media compositions: Phosphate buffer 50 mM (pH=2.0) […] of NaH2PO4, H2O in 200 mL of ultrapurified water adjusted at pH 2 with phosphoric acid 85%; Acetate buffer 50 mM (pH=5.5) 820 mg of anhydrous sodium acetate in 200 mL of ultrapurified water adjusted at pH 5.5 with acetic acid 99.8%; Phosphate buffer 50 mM (pH=7.4) 40.5 mL of Na2HPO4 0.1 M solution+9.5 mL of NaH2PO4 0.1 M solution. Analytical conditions: UPLC-UV-MS analyses were performed with a Waters Acquity UPLC HClass-PDA-QDa system using a reverse phase Acquity BEH C18 column (2.1 mm×50 mm, 1.7 μm; temperature: 40° C.) and a gradient of 10-95% B (A=0.1% formic acid in H2O; B=0.05% formic acid in ACN) over 1.8 min then 100% B for 0.8 min, with an injection volume of 0.4 μL at flow rate of 0.65 mL/min. UV chromatograms were recorded at 220 nm, 254 nm and 290 nm using a photo diode array detector. Mass spectra were recorded in the 150 to 900 M/Z range at a sampling rate of 10 scans per sec using a QDa detector. Data were integrated using Empower®3 software. Data Analysis: Equilibrium solubility of the test compound in the selected medium was calculated through the ratio of the surface area of the UV chromatographic peak of the compound in the filtrate to the surface of the UV chromatographic peak of the compound in the reference solution.

Where [3] appears, read: acetate buffer 50 mM, pH 5.5, read-out: Solubility (μg/mL) pH 5.5.
Where [4] appears, read: phosphate buffer 50 mM, pH 2.0, read-out: Solubility (μg/mL) pH 2.0.
[5] abbreviates: phosphate buffer 50 mM, pH 7.4, read-out: Solubility (μg/mL) pH 7.4.

Consider `CCOCCOc1nnc([C@H]2CC[C@H](NC(=O)COc3ccc(Cl)c(F)c3)CN2)o1` [Example 81, 2-(4-chloro-3-fluorophenoxy)-N-[(3S,6R)-6-[5-(2-ethoxyethoxy)-1,3,4-oxadiazol-2-yl]piperidin-3-yl]acctamide], for which the IC50 is 500 to 2000 nM in the data set with ATF4 and > 5000 nM in data set [1].

As for `CCCCCOc1nnc([C@H]2CC[C@H](NC(=O)COc3ccc(Cl)c(F)c3)CN2)o1` [Example 78, 2-(4-chloro-3-fluorophenoxy)-N-[(3S,6R)-6-[5-(pentyloxy)-1,3,4-oxadiazol-2-yl]piperidin-3-yl]acetamide], the IC50 in the data set with ATF4 is 1 to 500 nM; in data set [1] it was 1000 to 5000 nM.

For `O=C(COc1ccc(Cl)c(F)c1)N[C@H]1CC[C@H](c2nnc(OCC3CC3C(F)(F)F)o2)NC1` (stereo partly drawn) [Example 88, 2-(4-chloro-3-fluorophenoxy)-N-[(3S,6R)-6-(5-{[2-(trifluoromethyl)cyclopropyl]methoxy}-1,3,4-oxadiazol-2-yl)piperidin-3-yl]acetamide], the IC50 is 500 to 2000 nM in the data set with ATF4 and 1000 to 5000 nM in data set [1].

Take `O=C(COc1ccc(Cl)c(F)c1)N[C@H]1CC[C@H](c2nnc(-c3ccc(Cl)cc3)o2)NC1` [Example 40, 2-(4-chloro-3-fluorophenoxy)-N-[(3S,6R)-6-[5-(4-chlorophenyl)-1,3,4-oxadiazol-2-yl]piperidin-3-yl]acetamide]: the IC50 with ATF4 was in the range of 1 to 500 nM; in data set [1] it was 1 to 1000 nM.

Take `CC(F)(F)CCOc1nnc([C@H]2CC[C@H](NC(=O)COc3ccc(Cl)c(F)c3)CN2)o1` [Example 65, 2-(4-chloro-3-fluorophenoxy)-N-[(3S,6R)-6-[5-(3,3-difluorobutoxy)-1,3,4-oxadiazol-2-yl]piperidin-3-yl]acetamide]: the figures for the IC50 (in the data set on ATF4; in data set [1]) were 500 to 2000 nM and 1000 to 5000 nM, respectively.

Consider `O=C(COc1ccc(Cl)c(Cl)c1)N[C@H]1CC[C@H](c2nnc([C@H]3C[C@@H](OC(F)(F)F)C3)o2)NC1` [Example 9, 2-(3,4-dichlorophenoxy)-N-[(3S,6R)-6-{5-[(1s,3s)-3-(trifluoromethoxy)cyclobutyl]-1,3,4-oxadiazol-2-yl}piperidin-3-yl]acetamide], for which the IC50 in the data set on ATF4 lay in the range of 1 to 500 nM; in data set [1] it was 1000 to 5000 nM.

Turning to `O=C(COc1ccc(Cl)c(F)c1)N[C@@H]1CN[C@@H](c2nnc(-c3ccc(Cl)cc3)o2)C1` [Example 31, 2-(4-chloro-3-fluorophenoxy)-N-[(3S,5R)-5-[5-(4-chlorophenyl)-1,3,4-oxadiazol-2-yl]pyrrolidin-3-yl]acetamide], the IC50 in the data set with ATF4 is 2000 to 15000 nM; in data set [1], 1 to 1000 nM.

`O=C(COc1ccc(Cl)c(F)c1)N[C@H]1CC[C@H](c2nnc(N3CC(CC(F)(F)F)C3)o2)NC1` [Example 92, 2-(4-chloro-3-fluorophenoxy)-N-[(3S,6R)-6-{5-[3-(2,2,2-trifluoroethyl)azetidin-1-yl]-1,3,4-oxadiazol-2-yl}piperidin-3-yl]acetamide]: the IC50 lay within 500 to 2000 nM with ATF4 and 1000 to 5000 nM in data set [1].

As to `O=C(COc1ccc(Cl)c(F)c1)N[C@@H]1CC[C@@H](c2nnc(-c3ccc(Cl)cc3)o2)NC1` [Example 35, 2-(4-chloro-3-fluorophenoxy)-N-[(3R,6S)-6-[5-(4-chlorophenyl)-1,3,4-oxadiazol-2-yl]piperidin-3-yl]acetamide], the IC50 was 1 to 500 nM with ATF4 and 1 to 1000 nM in data set [1].

Turning to `O=C(COc1ccc(Cl)c(F)c1)N[C@H]1CC[C@H](c2nnc(OCCOC3CCC3)o2)NC1` [Example 82, 2-(4-chloro-3-fluorophenoxy)-N-[(3S,6R)-6-[5-(2-cyclobutoxyethoxy)-1,3,4-oxadiazol-2-yl]piperidin-3-yl]acetamide], the IC50 in the data set with ATF4 is 1 to 500 nM; in data set [1], > 5000 nM.

With `CCN1C[C@@H](NC(=O)COc2ccc(Cl)c(F)c2)CC[C@@H]1c1nnc(-c2ccc(Cl)cc2)o1` [Example 46, 2-(4-chloro-3-fluorophenoxy)-N-[(3S,6R)-6-[5-(4-chlorophenyl)-1,3,4-oxadiazol-2-yl]-1-ethylpiperidin-3-yl]acetamide], the results for the IC50 (in the data set on ATF4; in data set [1]) were 1 to 500 nM and 1 to 1000 nM, respectively.

As to `Cc1ccc(-c2nnc([C@H]3CC[C@H](NC(=O)COc4ccc(Cl)c(F)c4)CN3)o2)cn1` [Example 34, 2-(4-chloro-3-fluorophenoxy)-N-[(3S,6R)-6-[5-(6-methylpyridin-3-yl)-1,3,4-oxadiazol-2-yl]piperidin-3-yl]acetamide], the IC50 in the data set with ATF4 fell in the range of 500 to 2000 nM. In addition, the solubility in data set [2] (setting [3]) turned out to be 239 µg/mL (≈ 536 µM); in data set [2] (setting [4]), 994 µg/mL (≈ 2230 µM); in data set [2] (setting [5]), 153 µg/mL (≈ 343 µM).

On to `Cn1nc(-c2nnc([C@H]3CC[C@H](NC(=O)COc4ccc(Cl)c(F)c4)CN3)o2)cc1Cl` [Example 51, N-[(3S,6R)-6-[5-(5-chloro-1-methyl-1H-pyrazol-3-yl)-1,3,4-oxadiazol-2-yl]piperidin-3-yl]-2-(4-chloro-3-fluorophenoxy)acetamide], for which, in the data set on ATF4, the IC50 was 500 to 2000 nM. Moreover, the solubility in data set [2] (setting [3]) came to 4 µg/mL (≈ 8.52 µM); in data set [2] (setting [4]) it was 945 µg/mL (≈ 2010 µM); in data set [2] (setting [5]), 2 µg/mL (≈ 4.26 µM).

Turning to `CC(Oc1ccc(Cl)cc1)C(=O)N[C@H]1CC[C@H](c2nnc(-c3ccc(C(F)(F)F)cc3)o2)NC1` (stereo partly drawn) [Example 4, 2-(4-chlorophenoxy)-N-[(3S,6R)-6-{5-[4-(trifluoromethyl)phenyl]-1,3,4-oxadiazol-2-yl}piperidin-3-yl]propanamide], in data set [1], the IC50 lay in the range of 1 to 1000 nM.
